Assay results from PubChem BioAssay AID248 (DTP/NCI, 2004).
Several values for one entry are separate records, joined by “and”; a condition that tells them apart may be missing. Equal values may be shown once. Inconclusive results and toxic doses are left out. No stated cut-off is given here; in the data, active means T/C of 150% or more; inactive means T/C below 125%.

Test system: L1210 leukemia ip in BDF1 mice, survival T/C
Assay: NCI In Vivo Anticancer Drug Screen. Data for tumor model L1210 Leukemia (intraperitoneal) in B6D2F1 (BDF1) mice
Conditions: endpoint: mean survival time, higher = longer survival
How it was run: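 Transplanted-tumor mice were given test agent; controls received vehicle only. Survival readings from the two groups were divided (treated over control).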

[1] = dose: 100.0 mg/kg/injection, schedule: Q01DX001 (ip), vehicle: saline
[2] = dose: 200.0 mg/kg/injection, schedule: Q01DX001 (ip), vehicle: saline
[3] = dose: 400.0 mg/kg/injection, schedule: Q01DX001 (ip), vehicle: saline
[4] = dose: 100.0 mg/kg/injection, schedule: Q01DX001 (ip), vehicle: saline with Tween-80
[5] = dose: 200.0 mg/kg/injection, schedule: Q01DX001 (ip), vehicle: saline with Tween-80
[6] = dose: 400.0 mg/kg/injection, schedule: Q01DX001 (ip), vehicle: saline with Tween-80
[7] = dose: 100.0 mg/kg/injection, schedule: Q04DX003 (ip), vehicle: saline with Tween-80
[8] = dose: 200.0 mg/kg/injection, schedule: Q04DX003 (ip), vehicle: saline with Tween-80
[9] = dose: 400.0 mg/kg/injection, schedule: Q04DX003 (ip), vehicle: saline with Tween-80

Measured: T/C

CC(=O)c1cccc(OC(=O)Nc2ccc(C)cc2)c1
inactive: dose: 100.0 mg/kg/injection, schedule: Q01DX001 (ip), vehicle: gum acacia 89 % of control | dose: 100.0 mg/kg/injection, schedule: Q01DX009 (ip), vehicle: gum acacia 95 % of control and 88 % of control | dose: 100.0 mg/kg/injection, schedule: Q04DX003 (ip), vehicle: gum acacia 98 % of control and 100 % of control | dose: 200.0 mg/kg/injection, schedule: Q01DX001 (ip), vehicle: gum acacia 100 % of control | dose: 200.0 mg/kg/injection, schedule: Q01DX009 (ip), vehicle: gum acacia 98 % of control and 105 % of control | dose: 200.0 mg/kg/injection, schedule: Q04DX003 (ip), vehicle: gum acacia 93 % of control and 90 % of control | dose: 400.0 mg/kg/injection, schedule: Q01DX001 (ip), vehicle: gum acacia 90 % of control | dose: 400.0 mg/kg/injection, schedule: Q01DX009 (ip), vehicle: gum acacia 98 % of control and 109 % of control | dose: 400.0 mg/kg/injection, schedule: Q04DX003 (ip), vehicle: gum acacia 97 % of control and 103 % of control

Oc1ccc(Cl)cc1C(c1cc(Cl)ccc1O)C(Cl)(Cl)Cl
inactive: dose: 100.0 mg/kg/injection, schedule: Q04DX002 (ip), vehicle: saline + alcohol 99 % of control | dose: 200.0 mg/kg/injection, schedule: Q04DX002 (ip), vehicle: saline + alcohol 108 % of control | dose: 400.0 mg/kg/injection, schedule: Q04DX002 (ip), vehicle: saline + alcohol 102 % of control

O=C(O)c1ccccc1-c1c2ccc(=O)c(Br)c-2oc2c(Br)c(O)ccc12
inactive: dose: 50.0 mg/kg/injection, schedule: Q01DX001 (ip), vehicle: saline 104 % of control | [1] 96 % of control | [2] 98 % of control | [3] 102 % of control

CC(=O)OC1CCC2C3CCC4=CC(=O)CCC4(C)C3=CCC12C (centres undefined)
inactive: [4] 95 % of control | [5] 95 % of control | [6] 92 % of control

[Cl][Co][Cl].[NH-]CCC[NH-].[NH-]CCC[NH-]
inactive: dose: 100.0 mg/kg/injection, schedule: Q04DX003 (ip), vehicle: saline 109 % of control

CN(C)Cc1ccccc1COC(=O)c1ccc(Cl)cc1
inactive: dose: 75.0 mg/kg/injection, schedule: Q04DX002 (ip), vehicle: saline 102 % of control | dose: 150.0 mg/kg/injection, schedule: Q04DX002 (ip), vehicle: saline 94 % of control | dose: 300.0 mg/kg/injection, schedule: Q04DX002 (ip), vehicle: saline 96 % of control

Clc1ccc(C2=NC3=CC(Cl)C=CC3=CC2C2CO2)cc1 (centres undefined)
inactive: dose: 100.0 mg/kg/injection, schedule: Q01DX009 (ip), vehicle: Klucel (hydroxypropylcellulose) (HPC) 96 % of control | dose: 100.0 mg/kg/injection, schedule: Q04DX003 (ip), vehicle: Klucel (hydroxypropylcellulose) (HPC) 94 % of control | dose: 200.0 mg/kg/injection, schedule: Q01DX009 (ip), vehicle: Klucel (hydroxypropylcellulose) (HPC) 98 % of control | dose: 200.0 mg/kg/injection, schedule: Q04DX003 (ip), vehicle: Klucel (hydroxypropylcellulose) (HPC) 94 % of control | dose: 400.0 mg/kg/injection, schedule: Q04DX003 (ip), vehicle: Klucel (hydroxypropylcellulose) (HPC) 98 % of control

Nc1ccc(S(=O)(=O)NCCO)cc1[N+](=O)[O-]
inactive: dose: 100.0 mg/kg/injection, schedule: Q01DX001 (ip), vehicle: Klucel (hydroxypropylcellulose) (HPC) 103 % of control | dose: 100.0 mg/kg/injection, schedule: Q01DX009 (ip), vehicle: saline sonified 96 % of control | dose: 200.0 mg/kg/injection, schedule: Q01DX001 (ip), vehicle: Klucel (hydroxypropylcellulose) (HPC) 106 % of control | dose: 200.0 mg/kg/injection, schedule: Q01DX009 (ip), vehicle: saline sonified 102 % of control | dose: 400.0 mg/kg/injection, schedule: Q01DX001 (ip), vehicle: Klucel (hydroxypropylcellulose) (HPC) 105 % of control | dose: 400.0 mg/kg/injection, schedule: Q01DX009 (ip), vehicle: saline sonified 93 % of control

O=C(O)CN1C(=O)CNC12CCCCC2
inactive: [1] 95 % of control | [2] 101 % of control | [3] 97 % of control

CCCCCCCCCCCNC(=O)CCl
inactive: dose: 75.0 mg/kg/injection, schedule: Q04DX003 (ip), vehicle: Klucel (hydroxypropylcellulose) (HPC) 91 % of control | dose: 150.0 mg/kg/injection, schedule: Q04DX003 (ip), vehicle: Klucel (hydroxypropylcellulose) (HPC) 92 % of control | dose: 300.0 mg/kg/injection, schedule: Q04DX003 (ip), vehicle: Klucel (hydroxypropylcellulose) (HPC) 89 % of control

O=C1c2ccccc2-c2cc(F)cc(F)c21
inactive: dose: 50.0 mg/kg/injection, schedule: Q01DX001 (ip), vehicle: carboxymethylcellulose (CMC) 104 % of control | dose: 100.0 mg/kg/injection, schedule: Q01DX001 (ip), vehicle: carboxymethylcellulose (CMC) 102 % of control | dose: 200.0 mg/kg/injection, schedule: Q01DX001 (ip), vehicle: carboxymethylcellulose (CMC) 102 % of control | dose: 400.0 mg/kg/injection, schedule: Q01DX001 (ip), vehicle: carboxymethylcellulose (CMC) 102 % of control

O=P(CCC(O)c1ccccc1)(c1ccccc1)c1ccccc1 (centres undefined)
inactive: [4] 93 % of control | [5] 106 % of control | [6] 100 % of control

C=CC(=O)NC(C)C
inactive: [7] 102 % of control | [8] 104 % of control | [9] 86 % of control

O=[N+]([O-])c1ccc2c(c1)COCO2
inactive: [7] 95 % of control | [8] 95 % of control | [9] 97 % of control

CC(=O)[O][Hg][c]1cc[c]([Hg][O]C(C)=O)s1
inactive: dose: 3.0 mg/kg/injection, schedule: Q01DX009 (ip), vehicle: Klucel (hydroxypropylcellulose) (HPC) 91 % of control | dose: 6.0 mg/kg/injection, schedule: Q01DX009 (ip), vehicle: Klucel (hydroxypropylcellulose) (HPC) 89 % of control | dose: 12.5 mg/kg/injection, schedule: Q04DX003 (ip), vehicle: Klucel (hydroxypropylcellulose) (HPC) 100 % of control

CCCCCCCCC(CCCCCCCC)CCC1CCCCC1
inactive: dose: 100.0 mg/kg/injection, schedule: Q01DX001 (ip), vehicle: saline + alcohol 95 % of control | dose: 200.0 mg/kg/injection, schedule: Q01DX001 (ip), vehicle: saline + alcohol 108 % of control | dose: 400.0 mg/kg/injection, schedule: Q01DX001 (ip), vehicle: saline + alcohol 100 % of control

Brc1ccc(C[n+]2ccccc2)cc1
inactive: dose: 12.5 mg/kg/injection, schedule: Q04DX003 (ip), vehicle: saline 98 % of control | dose: 18.75 mg/kg/injection, schedule: Q01DX009 (ip), vehicle: saline 93 % of control | dose: 25.0 mg/kg/injection, schedule: Q04DX003 (ip), vehicle: saline 97 % of control | dose: 37.5 mg/kg/injection, schedule: Q01DX009 (ip), vehicle: saline 91 % of control | dose: 50.0 mg/kg/injection, schedule: Q04DX003 (ip), vehicle: saline 105 % of control | dose: 75.0 mg/kg/injection, schedule: Q04DX003 (ip), vehicle: saline 92 % of control

C/C(=N/OC(=O)N(C)C)c1ccc([N+](=O)[O-])cc1
inactive: [1] 104 % of control | [2] 104 % of control | [3] 104 % of control

COc1ccc(OC)c(NC(=O)c2ccc(N(CCc3cnc4nc(NC(C)=O)[nH]c(=O)c4n3)C(=O)C(F)(F)F)cc2)c1
inactive: dose: 100.0 mg/kg/injection, schedule: Q01DX009 (ip), vehicle: carboxymethylcellulose (CMC) 104 % of control | dose: 100.0 mg/kg/injection, schedule: Q04DX003 (ip), vehicle: other 97 % of control | dose: 200.0 mg/kg/injection, schedule: Q01DX009 (ip), vehicle: carboxymethylcellulose (CMC) 94 % of control | dose: 200.0 mg/kg/injection, schedule: Q04DX003 (ip), vehicle: other 97 % of control | dose: 400.0 mg/kg/injection, schedule: Q01DX009 (ip), vehicle: carboxymethylcellulose (CMC) 94 % of control | dose: 400.0 mg/kg/injection, schedule: Q04DX003 (ip), vehicle: other 92 % of control

O=C1c2ccccc2C(=O)N1CC[P+](c1ccccc1)(c1ccccc1)c1ccccc1
inactive: dose: 1.56 mg/kg/injection, schedule: Q01DX009 (ip), vehicle: water 106 % of control | dose: 3.12 mg/kg/injection, schedule: Q01DX009 (ip), vehicle: water 107 % of control | dose: 6.25 mg/kg/injection, schedule: Q01DX009 (ip), vehicle: water 108 % of control | dose: 12.5 mg/kg/injection, schedule: Q01DX009 (ip), vehicle: water 110 % of control | dose: 25.0 mg/kg/injection, schedule: Q01DX009 (ip), vehicle: water 98 % of control
